The results in this text go back to PMC9133015 (Nature Communications, 2022).

The target in this experiment is T1, DYRK2 (Homo sapiens, UniProt Q92630).
T1 construct: purchased Reaction Biology Corporation (assay service)
T1 sequence (Q92630 1-601): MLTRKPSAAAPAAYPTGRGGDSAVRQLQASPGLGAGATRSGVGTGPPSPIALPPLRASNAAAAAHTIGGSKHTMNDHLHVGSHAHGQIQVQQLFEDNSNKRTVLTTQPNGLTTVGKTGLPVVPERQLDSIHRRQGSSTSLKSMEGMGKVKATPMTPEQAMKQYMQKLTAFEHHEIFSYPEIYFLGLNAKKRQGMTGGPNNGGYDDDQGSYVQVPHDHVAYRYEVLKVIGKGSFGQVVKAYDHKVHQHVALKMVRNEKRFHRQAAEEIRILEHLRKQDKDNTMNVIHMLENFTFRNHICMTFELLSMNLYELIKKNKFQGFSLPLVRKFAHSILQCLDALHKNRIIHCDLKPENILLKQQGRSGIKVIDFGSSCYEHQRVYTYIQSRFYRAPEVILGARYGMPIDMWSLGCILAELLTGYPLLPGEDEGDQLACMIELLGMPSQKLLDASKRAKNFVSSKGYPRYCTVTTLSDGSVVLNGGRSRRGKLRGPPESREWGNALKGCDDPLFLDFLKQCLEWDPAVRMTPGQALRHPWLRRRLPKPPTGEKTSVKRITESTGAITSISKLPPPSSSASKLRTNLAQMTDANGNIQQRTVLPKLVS
The experiment can be described thus: DYRKs kinase activity assay (33P-ATP, DYRKtide substrate): DYRK2. Format: biochemical. The following applies: for DYRK2 inhibitory activity (in words): structural optimization of lead 12.

Where [1] appears, read: DYRK2 kinase, Conc. 0.000508053 µM, duplicate values.
The mark [2] stands for this setting: DYRK2 kinase, Conc. 0.00152416 µM, duplicate values.
[3] abbreviates: DYRK2 kinase, Conc. 0.00457247 µM, duplicate values.
Setting [4] is: DYRK2 kinase, Conc. 0.0137174 µM, duplicate values.
[5] abbreviates: DYRK2 kinase, Conc. 0.0411523 µM, duplicate values.
The mark [6] stands for this setting: DYRK2 kinase, Conc. 0.123457 µM, duplicate values.
[7] abbreviates: DYRK2 kinase, Conc. 0.37037 µM, duplicate values.
Where [8] appears, read: DYRK2 kinase, Conc. 1.11111 µM, duplicate values.
Where [9] appears, read: DYRK2 kinase, Conc. 3.33333 µM, duplicate values.
[10] abbreviates: DYRK2 kinase, Conc. 10 µM, duplicate values.
The mark [11] stands for this setting: Supplementary Table 1, read-out: IC50 (μM), DYRK2 kinase.
[12] abbreviates: DYRK2 kinase, Conc. 1.11111 µM, duplicate values, read-out: % Inhibition.
[13] abbreviates: DYRK2 kinase, Conc. 10 µM, duplicate values, read-out: % Inhibition.
The mark [14] stands for this setting: DYRK2 kinase, Conc. 0.00152416 µM, duplicate values, read-out: % Inhibition.
Setting [15] is: DYRK2 kinase, Conc. 3.33333 µM, duplicate values, read-out: % Inhibition.

Each structure is given as a SMILES string. “And” between values parts separate entries of the source, which are not always exact repeats. Equal entries are not always repeated. Where two headings read alike, the source gives them in different places. Some results are limits rather than exact numbers.

As to `Cc1ccccc1C1C=C(c2ccccc2)OC(c2ccccc2)=C1C=NCCc1c[nH]c2ccccc12` (stereo not drawn) [Compound 2], the “% Inhibition” value was -5.36% and -2.56% under setting [1]; -6.00% and -8.80% under setting [2]; -4.71% and -7.51% under setting [3]; 3.44% and 4.28% under setting [4]; 3.20% and 5.16% under setting [5]; 5.94% and 3.15% under setting [6]. For the same compound, the “% Inhibition” value runs as follows: under setting [7], 4.61% and 6.29%; under setting [8], 5.16% and 2.64%; under setting [9], 1.41% and 4.21%; under setting [10], 9.74% and 12.54%. Moreover, the IC50 under setting [11] was more than 10 µM.
As to `CCN1CCN(Cc2ccc(Nc3ncc(F)c(-c4cnc5ccnn5c4)n3)nc2)CC1` [Compound 19], the “DYRK2 inhibitory activity (in words)” value is given as “significantly decreased”. The “% Inhibition” value under setting [1] is -1.87% and -5.39%. In addition, under setting [2], the “% Inhibition” value is -4.33% and -7.82%. Moreover, the “% Inhibition” value under setting [3] was -8.64% and -11.90%. Also, under setting [4], the “% Inhibition” value is -12.62% and -14.01%. Besides, the “% Inhibition” value under setting [5] is -8.54% and -12.22%. The “% Inhibition” value under setting [6] was 0.35% and 0.01%. Moreover, the “% Inhibition” value under setting [7] was 1.52% and -0.10%. Also, under setting [8], the “% Inhibition” value came out at 6.04%. Besides, the inhibition at 1.11111 µM under setting [12] is 8.33%. Moreover, the “% Inhibition” value under setting [9] was 1.80% and -0.24%. For the same compound, the “% Inhibition” value under setting [10] came to 26.16%. The inhibition at 10 µM under setting [13] amounted to 28%.
Regarding `CCN1CCN(C(=O)c2ccc(Nc3ncc(F)c(-c4ccc5nc(C)sc5c4)n3)nc2)CC1` [Compound 23], the “% Inhibition” value by setting is: under setting [1], 9.47%; under setting [2], 18.47%; under setting [3], 32.91%; under setting [4], 41.99%; under setting [5], 56.16%; under setting [6], 70.45%. Further, the inhibition at 0.000508053 µM under setting [1] is 9.2%. The inhibition at 0.00152416 µM under setting [14] worked out at 20.2%. Under setting [3], this compound came in with an inhibition at 0.00457247 µM of 32.2%. Besides, the inhibition at 0.0137174 µM (DYRK2 kinase, Conc. 0.0137174 µM, duplicate values, read-out: % Inhibition) was determined as 41.4%. Besides, the inhibition at 0.0411523 µM (DYRK2 kinase, Conc. 0.0411523 µM, duplicate values, read-out: % Inhibition) was determined as 55.9%. In addition, for the setting “DYRK2 kinase, Conc. 0.123457 µM, duplicate values, read-out: % Inhibition”, the inhibition at 0.123457 µM was found to be 70.4%. Also, under “DYRK2 kinase, Conc. 0.37037 µM, duplicate values, read-out: % Inhibition”, the inhibition at 0.37037 µM worked out at 84.9%. Under setting [12], the inhibition at 1.11111 µM worked out at 92.2%. Further, the inhibition at 3.33333 µM under setting [15] is 95.8%. The inhibition at 10 µM under setting [13] came to 96.2%. Also, under “read-out: DYRK2 IC50”, the IC50 came out at 0.022 µM.
For `O=C(c1cccc(Cn2cc(Br)c([N+](=O)[O-])n2)c1)N1CCN(C(=O)c2ccco2)CC1` [Compound 8], the “% Inhibition” value was -2.60% and -0.07% under setting [1]; -3.65% and -2.08% under setting [2]; -3.85% and -2.28% under setting [3]; -16.34% and -14.56% under setting [4]; -10.92% and -10.74% under setting [5]; -6.09% and -4.48% under setting [6]. In addition, the “% Inhibition” value reads like this: under setting [7], -6.00% and -2.89%; under setting [8], -5.16% and -3.57%; under setting [9], 2.31% and 3.77%; under setting [10], 17.16% and 18.38%. Further, the IC50 under setting [11] was more than 10 µM.
On to `CCN1CCN(C(=O)c2ccc(Nc3nc(-c4ccc5nc(N(C)C)sc5c4)c4sccc4n3)nc2)CC1` [Compound 27], for which the “DYRK2 inhibitory activity (in words)” value is “no inhibition”. Also, the “% Inhibition” value under setting [1] was -2.37% and 0.19%. Moreover, the “% Inhibition” value under setting [2] worked out at 1.48%. For the same compound, the inhibition at 0.00152416 µM under setting [14] stood at 1.6%. For the same compound, the “% Inhibition” value under setting [3] is 3.31% and -4.82%. Further, under setting [4], the “% Inhibition” value was 5.42% and 2.62%. Also, the “% Inhibition” value under setting [5] is -2.71% and -6.99%. Also, the “% Inhibition” value under setting [6] is 2.56% and -2.91%. The “% Inhibition” value under setting [7] is 3.14% and 0.34%. Besides, the “% Inhibition” value under setting [8] is -1.20% and -1.05%. Under setting [9], the “% Inhibition” value came to 2.76%. Besides, the inhibition at 3.33333 µM under setting [15] amounted to 2.35%. Also, the “% Inhibition” value under setting [10] worked out at 7.55%. Also, under setting [13], the inhibition at 10 µM is 7.66%.
Regarding `CC(C)COc1cccc(-c2cc(C(=O)Nc3sc(C(C)C)cc3C(N)=O)c3ccccc3n2)c1` [Compound 9], the “% Inhibition” value under setting [1] was 0.43% and 0.42%; the “% Inhibition” value under setting [2] was 1.70% and 1.66%; the “% Inhibition” value under setting [3] was -1.24% and 1.19%; the “% Inhibition” value under setting [4] was -4.62% and -2.11%; the “% Inhibition” value under setting [5] is -1.40% and 1.03%; the “% Inhibition” value under setting [6] was 2.80% and 5.13%. The “% Inhibition” value under setting [7] is 6.00% and 8.26%; the “% Inhibition” value under setting [8] was 12.51% and 17.02%; the “% Inhibition” value under setting [9] is 18.00% and 19.98%; the “% Inhibition” value under setting [10] is 35.11% and 36.69%. For the same compound, the IC50 under setting [11] was more than 10 µM.
For the compound `CC(C)Cc1nc(N2CCN(CC(=O)NCc3ccco3)CC2)c(C#N)c2c1COC(C)(C)C2` [Compound 14], the “% Inhibition” value by setting is: under setting [1], 0.98% and 2.97%; under setting [2], 13.91% and 15.64%; under setting [3], 3.50% and 5.44%; under setting [4], 7.06% and 8.93%; under setting [5], 12.96% and 14.71%; under setting [6], 25.38% and 26.88%. In addition, the “% Inhibition” value under setting [7] was 22.08% and 23.65%; the “% Inhibition” value under setting [8] was 26.44% and 27.92%; the “% Inhibition” value under setting [9] is 22.42% and 24.14%; the “% Inhibition” value under setting [10] was 27.65% and 29.11%. In addition, the IC50 under setting [11] was more than 10 µM.
Consider `CC(C)c1ccc2c(c1)C(N1CCN(CCc3ccc(F)cc3)CC1)Cc1ccc(F)cc1S2` (stereo not drawn) [Compound 1], for which the “% Inhibition” value is -1.87% and -4.38% under setting [1]; -4.34% and -6.85% under setting [2]; -8.65% and -6.11% under setting [3]; -12.64% and -10.09% under setting [4]; -8.55% and -6.02% under setting [5]; -2.02% and 0.35% under setting [6]. Further, the “% Inhibition” value runs as follows: under setting [7], 1.52% and 4.04%; under setting [8], 8.35% and 5.81%; under setting [9], 1.80% and 0.0379%; under setting [10], 28.07% and 27.88%. The IC50 under setting [11] was more than 10 µM.

The term % Inhibition denotes the change of the read-out against control, counted positive when it falls. A word on the IC50: it is the midpoint of a concentration-inhibition curve. By inhibition is commonly meant the drop in the measured response relative to a control, in per cent.
